Test results from article PMC12110804, “Molecular Characterization and Functional Analysis of Odorant-Binding Proteins in Ectropis grisescens” (International Journal of Molecular Sciences, 2025).
Entries after “also recorded” stand apart in the source; their conditions may differ. Like-named read-outs stand apart in the source and are kept apart here. Each block holds one molecule with its values, some of them ahead of it.

What was measured:
[1] = molecular target: T1, EgriGOBP2 (Ectropis grisescens, UniProt A0A977IVV0); assay: Fluorescence competitive binding assay (1-NPN displacement) with recombinant EgriGOBP2; settings: for binding to EgriGOBP2 (in words, displacement of 1-NPN fluorescence): non-binding ligands
Procedure: The excitation wavelength was 337 nm, and the emission spectrum ranged from 370 to 550 nm. […] The binding curves were linearized using Scatchard plots, based on fluorescence intensity values relative to the maximum fluorescence emissions.
The dissociation constants (Ki) of each ligand were calculated with the following equation: Ki = [IC50]/(1 + [1-NPN]/K1-NPN).

[2] = tested on: GOBP2 in Ectropis obliqua; design: method as in PMID 29543772; settings: host odors; cited from earlier work
[3] = tested on: RpedOBP38; design: method as in PMID 39835200; settings: plant essential oil-derived volatiles with repellent activity; cited from earlier work
[4] = molecular target: T1, EgriGOBP2; assay: Binding of fluorescent probe 1-NPN to recombinant EgriGOBP2 (binding curve, Scatchard plot); settings: 2 µM protein in 20 mM Tris-HCl pH 7.4, 1-NPN 0–16 µM, read-out: dissociation constant (Kd) of 1-NPN
Procedure: The binding affinities of target proteins were measured with an F-7000 fluorescence spectrophotometer (Hitachi, Tokyo, Japan) using a 1 cm light path quartz cuvette, and 1-N-phenyl-naphthylamine (1-NPN) was used as a fluorescent probe. The excitation wavelength was 337 nm, and the emission spectrum ranged from 370 to 550 nm. A total of 24 volatile compounds, including host volatiles and plant essential oil-derived volatiles, were selected for fluorescence competitive binding assays (Table 2). First, the binding affinities of 1-NPN to the target proteins were determined. The protein solutions (2 µM in 20 mM Tris-HCl, pH = 7.4) were titrated with 1-NPN to final concentrations ranging from 0 to 16 µM. The binding curves were linearized using Scatchard plots, based on fluorescence intensity values relative to the maximum fluorescence emissions. Next, each ligand (at concentrations of 0–16 µM, prepared at a 1 mM stock concentration) was added to the 2 µM EgriGOBP2/1-NPN mixture, and competitive binding curves were plotted based on the fluorescence intensity values from three replicates.
The dissociation constants (Ki) of each ligand were calculated with the following equation: Ki = [IC50]/(1 + [1-NPN]/K1-NPN). […]

[5] = tested on: CpalOBP2; design: method as in PMID 25810363; settings: cited from earlier work
[6] = tested on: C. pallens; design: method as in PMID 25810363; settings: glass Y-tube olfactometer; cited from earlier work
[7] = tested on: AgamOBP5; design: method as in PMID 36921814; settings: cited from earlier work
[8] = tested on: Sitophilus zeamais; design: method as in PMID 31813390; settings: cited from earlier work
[9] = tested on: Frankliniella occidentalis, Frankliniella intonsa, and Thrips palmi Karny; design: method as in PMID 33346361; settings: Y-tube olfactometer bioassays; cited from earlier work
[10] = EgriGOBP2 Ki (dash cells), “-”: no detectable Ki
[11] = Ki = [IC50]/(1 + [1-NPN]/K1-NPN), 2 µM EgriGOBP2/1-NPN mixture, pH 7.4, read-out: EgriGOBP2 Ki
[12] = displacement of 1-NPN from 2 µM EgriGOBP2/1-NPN mixture, 20 mM Tris-HCl pH 7.4, ligand 0–16 µM, read-out: EgriGOBP2 IC50
[13] = EgriGOBP2 Ki, Ki = [IC50]/(1 + [1-NPN]/K1-NPN), 2 µM EgriGOBP2/1-NPN mixture, pH 7.4
[14] = cells printed as “-”: IC50 could not be calculated, read-out: EgriGOBP2 IC50 (dash cells)
[15] = “-”: no detectable Ki, read-out: EgriGOBP2 Ki (dash cells)

T1 sequence (A0A977IVV0 entry or part of it): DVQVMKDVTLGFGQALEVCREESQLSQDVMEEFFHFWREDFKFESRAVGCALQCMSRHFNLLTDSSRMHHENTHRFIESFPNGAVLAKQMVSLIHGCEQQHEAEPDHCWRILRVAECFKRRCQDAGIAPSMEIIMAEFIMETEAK

Molecule: O=Cc1ccccc1 [Benzaldehyde]
IC50 [1]: > 16 µM | Ki [1, 10]: > 14.4 µM | binding to EgriGOBP2 (in words, displacement of 1-NPN fluorescence) [1]: negligible binding; also recorded: did not exhibit binding affinity | competitive binding to Ectropis obliqua GOBP2 (in words) [2]: competitively bind

Ki [1, 11]: 22.3 µM | IC50 [1, 12]: 24.7 µM
Molecule: CC(=O)OC/C=C(\C)CCC=C(C)C [Geranyl acetate]

Ki [1, 11]: 13 µM | IC50 [1, 12]: 14.3 µM
Molecule: CC(=O)OCc1ccccc1 [Benzyl acetate]

Molecule: C=CC(C)(O)CCC=C(C)C (centres unmarked) [Linalool]
IC50 [1]: 11.9 µM | Ki [1, 13]: 10.8 µM

Ki [1, 11]: 13.1 µM | IC50 [1, 12]: 14.5 µM
Molecule: CC/C=C\CCOC(C)=O [Cis-3-hexenyl acetate]

binding affinity to EgriGOBP2 (class in words) [1]: moderate (moderate (22 µM < Ki ≤ 40 µM)) | Ki [1, 11]: 18 µM | IC50 [1, 12]: 19.9 µM
Molecule: C=CC(C)=CCC=C(C)C [Ocimene]

Molecule: CC1=CC[C@](O)(C(C)C)CC1 [(+) -4-terpineol]
binding to RpedOBP38 (in words) [3]: found to bind

Molecule: COC(=O)c1ccccc1O [Methyl salicylate]
IC50 [1]: 17.3 µM | Ki [1, 13]: 15.6 µM | competitive binding to Ectropis obliqua GOBP2 (in words) [2]: competitively bind

IC50 [1, 14]: > 16 µM | binding to EgriGOBP2 (in words, displacement of 1-NPN fluorescence) [1]: negligible binding | Ki [1, 15]: > 14.4 µM
Molecule: CCCCCCCCCC=O [Decanal]

Molecule: C=CCc1ccc(OC)cc1 [4-allylanisole]
IC50 [1]: 8.1 µM | Ki [1, 13]: 7.31 µM

Molecule: C=C(C)[C@@H]1CC=C(C)C(=O)C1 [L(-)-carvone]
Ki [1, 11]: 11.6 µM | IC50 [1, 12]: 12.9 µM | binding to RpedOBP38 (in words) [3]: found to bind

Ki [1, 11]: 21.2 µM | IC50 [1, 12]: 23.5 µM
Molecule: CCCCCCO [n-hexyl alcohol]

Ki [1, 11]: 14 µM | IC50 [1, 12]: 15.5 µM
Molecule: CC/C=C\CCOC(=O)CCCCC [Cis-3-hexenyl caproate]

Molecule: c1ccc(Nc2cccc3ccccc23)cc1 [1-NPN, 1-N-phenyl-naphthylamine]
Kd [4]: 9.28 µM

Molecule: O=C/C=C/c1ccccc1 [Cinnamaldehyde]
IC50 [1]: > 16 µM | Ki [1, 10]: > 14.4 µM | binding to EgriGOBP2 (in words, displacement of 1-NPN fluorescence) [1]: did not bind

binding affinity to EgriGOBP2 (class in words) [1]: moderate (moderate (22 µM < Ki ≤ 40 µM)) | Ki [1, 11]: 18.6 µM | IC50 [1, 12]: 20.6 µM
Molecule: CC/C=C\CCOC(=O)CCC [Cis-3-hexenyl tyrate]

Molecule: farnesene
binding affinity for CpalOBP2 (in words) [5]: strong and high binding affinities | behavioral response of C. pallens (in words) [6]: significant and strong repellent behavioral responses

Molecule: C=C(C)[C@H]1CC=C(C)C(=O)C1 [(S)-(+)-carvone]
binding affinity to EgriGOBP2 (class in words) [1]: strong (strong (6 µM < Ki ≤ 22 µM)) | IC50 [1, 12]: 5.36 µM

Molecule: CC(C)=CCCC(C)=CC=O (mixture of isomers) [Citral]
IC50 [1]: 9.12 µM | Ki [1, 13]: 8.23 µM

Molecule: Cc1ccc(C(C)C)cc1O [Carvacrol]
IC50 [1]: 23.6 µM | Ki [1, 13]: 21.3 µM | binding to AgamOBP5 (in words) [7]: strong binder | binding to RpedOBP38 (in words) [3]: found to bind

Ki [1, 11]: 40.6 µM | IC50 [1, 12]: 44.8 µM
Molecule: C=CC(O)CC (centres unmarked) [1-penten-3-ol]

Molecule: OCc1ccccc1 [Benzyl alcohol]
IC50 [1]: 30 µM | Ki [1, 13]: 27 µM

Molecule: C=C(C)C1CC=C(C)C(=O)C1 (centres unmarked) [Carvone]
repellency to Sitophilus zeamais (in words) [8]: strongly repellent

Molecule: CC(C)=CCC/C(C)=C/CC/C(C)=C/CO [farnesol]
binding affinity for CpalOBP2 (in words) [5]: strong and high binding affinities | behavioral response of C. pallens (in words) [6]: significant and strong repellent behavioral responses

Ki [1, 11]: 7.93 µM | IC50 [1, 12]: 8.79 µM
Molecule: C=CC(C)(O)CCC=C(C)CCC=C(C)C (mixture of isomers) [Nerolidol]

IC50 [1, 14]: > 16 µM | Ki [1, 15]: > 14.4 µM
Molecule: CCCCCCCCC=O [Nonanal]
binding to EgriGOBP2 (in words, displacement of 1-NPN fluorescence) [1]: negligible binding; also recorded: did not exhibit binding affinity

Molecule: C=CCc1ccc(O)c(OC)c1 [Eugenol]
IC50 [1]: 9.28 µM | Ki [1, 13]: 8.38 µM

Molecule: CCC/C=C/C=O [E-2-hexenal]
IC50 [1]: > 16 µM | Ki [1, 10]: > 14.4 µM | binding to EgriGOBP2 (in words, displacement of 1-NPN fluorescence) [1]: negligible binding; also recorded: did not exhibit binding affinity

Ki [1, 11]: < 10 µM | IC50 [1, 12]: 9.36 µM
Molecule: CC12CCC(CC1)C(C)(C)O2 [Eucalyptol]
repellent activity against three thrip species (in words) [9]: significant repellent activity
